Test results from paper PMC6941952, “A homogeneous bioluminescent immunoassay to probe cellular signaling pathway regulation” (Communications Biology, 2020).
Values joined by “and” are separate entries in the source; they are usually repeats but may differ in a detail not shown here. Identical values can stand only once.

System: STAT3 Phospho-Tyr705
Assay: NanoBiT pSTAT3 cell-based immunoassay in A431 cells
Set-up: species or system human
Settings: IL-6 10 ng/ml; for P-STAT3 (% compared to no inhibitor): replicate
Experimental: Prior to NanoBiT Cell-Based Immunoassay, 50,000 cells were seeded in 160 µl of complete growth media per well of a 96-well plate and incubated overnight. […] If necessary, the cell culture media were replaced with serum-free media after the cells were stably adherent on the plate and incubated overnight. To treat cells with activators or inhibitors, medium was changed to 30 µl of medium containing inhibitors. If activation of a specific pathway is needed, the cells were stimulated with 10 µl of medium containing activators. To lyse the cells, 10 µl of lysis buffer containing 0.1% digitonin diluted in 1X immunoassay buffer with protease and phosphatase inhibitors was added and the plates were mixed vigorously for 20 min. Then, 50 µl of an antibody mix containing two primary antibodies against the target protein and NanoBiT detecting antibodies (0.3 µl each per well), diluted in 1X immunoassay buffer was added to the lysates. The plates were incubated at 23 °C for 90 min, followed by the addition of 25 µl of Nano-Glo® reagent consisting of Nano-Glo® Luciferase Assay Substrate mixed with 1X immunoassay buffer. Luminescence was measured using a plate-reading luminometer.
Single dose or dose response inhibitor treatments were performed prior to activation of the pathways as follows. For IκBα, the cells were treated in 30 µl medium with IKK16 or MG132 for 60 min before the addition of 10 µl of DMEM containing appropriate concentration of TNFα. To measure phosphorylation of AKT or STAT3, the corresponding NanoBiT immunoassays were developed with MCF-7 or A431 cells, respectively, according the same scheme used to develop the IκBα assay using the primary antibodies for AKT and STAT3 described in the reagents section. […] Treatment with LY294002 was performed in 30 µl medium and cells were incubated for 60 min before the addition of 1 µM Insulin. To measure STAT3 phosphorylation, A431 cells were incubated overnight in DMEM medium without serum. […] After addition of the stimulators, the cells were incubated for additional times as follows. IκBα phosphorylation and degradation analyses required both time courses and single time points as described in figures. […] The NanoBiT immunoassay protocol was followed as described above.
All 96-well assay plates were read using a GloMax® 96 Microplate Luminometer from Promega. The instrument was set to 0.5 s integration time. In order to obtain net change of signal, the reagent background values (signal from the well containing all reagent except primary antibodies) were subtracted from the sample values. To plot and analyze the data, Microsoft Excel and GraphPad Prism® Software were used. IC50 values were determined by using a nonlinear regression fit to a sigmoidal dose response (variable slope).

Structure (SMILES): CN(C)C(=O)/C(C#N)=C/c1ccc(-c2nc3cnc4[nH]ccc4c3n2C2CCCCC2)o1 [FM-381]
- P-STAT3 (% compared to no inhibitor) Average (inhibitor 0.0190735 nM): 105.1%
- P-STAT3 (% compared to no inhibitor) Average (inhibitor 0.038147 nM): 92.2%
- P-STAT3 (% compared to no inhibitor) Average (inhibitor 0.0762939 nM): 92.0%
- P-STAT3 (% compared to no inhibitor) Average (inhibitor 0.152588 nM): 93.2%
- P-STAT3 (% compared to no inhibitor) Average (inhibitor 0.305176 nM): 90.6%
- P-STAT3 (% compared to no inhibitor) Average (inhibitor 0.610352 nM): 92.3%
- P-STAT3 (% compared to no inhibitor) Average (inhibitor 1.2207 nM): 95.1%
- P-STAT3 (% compared to no inhibitor) Average (inhibitor 2.44141 nM): 87.8%
- P-STAT3 (% compared to no inhibitor) Average (inhibitor 4.88281 nM): 94.8%
- P-STAT3 (% compared to no inhibitor) Average (inhibitor 9.76562 nM): 88.5%
- P-STAT3 (% compared to no inhibitor) Average (inhibitor 19.5312 nM): 102.9%
- P-STAT3 (% compared to no inhibitor) Average (inhibitor 39.0625 nM): 94.1%
- P-STAT3 (% compared to no inhibitor) Average (inhibitor 78.125 nM): 88.7%
- P-STAT3 (% compared to no inhibitor) Average (inhibitor 156.25 nM): 85.8%
- P-STAT3 (% compared to no inhibitor) Average (inhibitor 312.5 nM): 74.2%
- P-STAT3 (% compared to no inhibitor) Average (inhibitor 625 nM): 60.8%
- P-STAT3 (% compared to no inhibitor) Average (inhibitor 2500 nM): 22.9%
- P-STAT3 (% compared to no inhibitor) Average (inhibitor 5000 nM): 12.0%
- P-STAT3 (% compared to no inhibitor) Average (inhibitor 10000 nM): 7.8%
- P-STAT3 (% compared to no inhibitor) Average (inhibitor […]): 41.3%
- P-STAT3 Raw data (inhibitor 0.0190735 nM): 278100 and 296300 and 285800
- P-STAT3 Subtract reagent background (inhibitor 0.0190735 nM): 177250 and 195450 and 184950
- P-STAT3 Raw data (inhibitor 0.038147 nM): 270700 and 268700 and 257500
- P-STAT3 Subtract reagent background (inhibitor 0.038147 nM): 168850 and 166850 and 155650
- P-STAT3 Raw data (inhibitor 0.0762939 nM): 272300 and 259800 and 258800
- P-STAT3 Subtract reagent background (inhibitor 0.0762939 nM): 172505 and 160005 and 159005
- P-STAT3 Raw data (inhibitor 0.152588 nM): 261700 and 262700 and 269600
- P-STAT3 Subtract reagent background (inhibitor 0.152588 nM): 162310 and 163310 and 170210
- P-STAT3 Raw data (inhibitor 0.305176 nM): 244400 and 266100 and 264700
- P-STAT3 Subtract reagent background (inhibitor 0.305176 nM): 145940 and 167640 and 166240
- P-STAT3 Raw data (inhibitor 0.610352 nM): 253900 and 276500 and 252400
- P-STAT3 Subtract reagent background (inhibitor 0.610352 nM): 156070 and 178670 and 154570
- P-STAT3 Raw data (inhibitor 1.2207 nM): 278300 and 261300 and 251600
- P-STAT3 Subtract reagent background (inhibitor 1.2207 nM): 184135 and 167135 and 157435
- P-STAT3 Raw data (inhibitor 2.44141 nM): 238200 and 252900 and 237300
- P-STAT3 Subtract reagent background (inhibitor 2.44141 nM): 150835 and 165535 and 149935
- P-STAT3 Raw data (inhibitor 4.88281 nM): 243400 and 259600 and 241900
- P-STAT3 Subtract reagent background (inhibitor 4.88281 nM): 162830 and 179030 and 161330
- P-STAT3 Raw data (inhibitor 9.76562 nM): 219800 and 245100 and 214000
- P-STAT3 Subtract reagent background (inhibitor 9.76562 nM): 149750 and 175050 and 143950
- P-STAT3 Raw data (inhibitor 19.5312 nM): 297400 and 269300 and 273700
- P-STAT3 Subtract reagent background (inhibitor 19.5312 nM): 172850 and 196550 and 168450
- P-STAT3 Raw data (inhibitor 39.0625 nM): 266500 and 275400 and 255500
- P-STAT3 Subtract reagent background (inhibitor 39.0625 nM): 153650 and 164650 and 173550
- P-STAT3 Raw data (inhibitor 78.125 nM): 243600 and 255500 and 264900
- P-STAT3 Subtract reagent background (inhibitor 78.125 nM): 165105 and 143805 and 155705
- P-STAT3 Raw data (inhibitor 156.25 nM): 244000 and 250600 and 253000
- P-STAT3 Subtract reagent background (inhibitor 156.25 nM): 153610 and 144610 and 151210
- P-STAT3 Raw data (inhibitor 312.5 nM): 227000 and 243200 and 212500
- P-STAT3 Subtract reagent background (inhibitor 312.5 nM): 114040 and 128540 and 144740
- P-STAT3 Raw data (inhibitor 625 nM): 189200 and 199400 and 224200
- P-STAT3 Subtract reagent background (inhibitor 625 nM): 126370 and 91370 and 101570
- P-STAT3 Raw data (inhibitor 2500 nM): 128000 and 133500 and 120100
- P-STAT3 Subtract reagent background (inhibitor 2500 nM): 32735 and 40635 and 46135
- P-STAT3 Raw data (inhibitor 5000 nM): 101000 and 109100 and 93870
- P-STAT3 Raw data (inhibitor 10000 nM): 84360 and 88520 and 77950
- P-STAT3 (% compared to no inhibitor) (inhibitor 0.0190735 nM): 88.0% and 120.5% and 106.8%
- P-STAT3 (% compared to no inhibitor) (inhibitor 0.038147 nM): 83.9% and 102.9% and 89.9%
- P-STAT3 (% compared to no inhibitor) (inhibitor 0.0762939 nM): 85.7% and 98.6% and 91.8%
- P-STAT3 (% compared to no inhibitor) (inhibitor 0.152588 nM): 80.6% and 100.7% and 98.3%
- P-STAT3 (% compared to no inhibitor) (inhibitor 0.305176 nM): 72.5% and 103.3% and 96.0%
- P-STAT3 (% compared to no inhibitor) (inhibitor 0.610352 nM): 77.5% and 110.1% and 89.2%
- P-STAT3 (% compared to no inhibitor) (inhibitor 1.2207 nM): 91.5% and 103.0% and 90.9%
- P-STAT3 (% compared to no inhibitor) (inhibitor 2.44141 nM): 74.9% and 102.0% and 86.6%
- P-STAT3 (% compared to no inhibitor) (inhibitor 4.88281 nM): 80.9% and 110.4% and 93.1%
- P-STAT3 (% compared to no inhibitor) (inhibitor 9.76562 nM): 74.4% and 107.9% and 83.1%
- P-STAT3 (% compared to no inhibitor) (inhibitor 19.5312 nM): 95.2% and 115.2% and 98.2%
- P-STAT3 (% compared to no inhibitor) (inhibitor 39.0625 nM): 84.6% and 96.5% and 101.2%
- P-STAT3 (% compared to no inhibitor) (inhibitor 78.125 nM): 90.9% and 84.3% and 90.8%
- P-STAT3 (% compared to no inhibitor) (inhibitor 156.25 nM): 84.6% and 84.8% and 88.2%
- P-STAT3 (% compared to no inhibitor) (inhibitor 312.5 nM): 62.8% and 75.3% and 84.4%
- P-STAT3 (% compared to no inhibitor) (inhibitor 625 nM): 69.6% and 53.6% and 59.2%
- P-STAT3 (% compared to no inhibitor) (inhibitor 2500 nM): 18.0% and 23.8% and 26.9%
- P-STAT3 (% compared to no inhibitor) (inhibitor 5000 nM): 7.3% and 12.0% and 16.6%
- P-STAT3 (% compared to no inhibitor) (inhibitor 10000 nM): 4.3% and 8.4% and 10.8%
